Data as given in ChEMBL document CHEMBL5696442, “Discovery of type II inhibitors of TGFβ-activated kinase 1 (TAK1) and mitogen-activated protein kinase kinase kinase kinase 2 (MAP4K2)” (J Med Chem, 2015).

Tests used:
[1] = target: Serine/threonine-protein kinase WNK2 (Homo sapiens) (UniProt Q9Y3S1); assay: Inhibition of Wnk2 ACT labeling site in human Huh-7 cells at 1 uM by KiNativ Profiling analysis relative to control; assay type: cell-based
[2] = target: Mitogen-activated protein kinase kinase kinase kinase 4 (Homo sapiens, UniProt O95819); assay: Inhibition of ZC1/HGK K1 labeling site harbouring TGQLAAIKVMDVTEDEEEEIKLEINMLK in human Huh-7 cells at 1 uM by KiNativ Profiling analysis relative to control; assay type: cell-based
[3] = target: T1, PAN2-PAN3 deadenylation complex subunit PAN3 (Homo sapiens) (UniProt Q58A45); assay: Inhibition of PAN3 ATP labeling site in human A-375 cells at 0.05 uM by KiNativ Profiling analysis relative to control; assay type: cell-based
T1 sequence (whole entry): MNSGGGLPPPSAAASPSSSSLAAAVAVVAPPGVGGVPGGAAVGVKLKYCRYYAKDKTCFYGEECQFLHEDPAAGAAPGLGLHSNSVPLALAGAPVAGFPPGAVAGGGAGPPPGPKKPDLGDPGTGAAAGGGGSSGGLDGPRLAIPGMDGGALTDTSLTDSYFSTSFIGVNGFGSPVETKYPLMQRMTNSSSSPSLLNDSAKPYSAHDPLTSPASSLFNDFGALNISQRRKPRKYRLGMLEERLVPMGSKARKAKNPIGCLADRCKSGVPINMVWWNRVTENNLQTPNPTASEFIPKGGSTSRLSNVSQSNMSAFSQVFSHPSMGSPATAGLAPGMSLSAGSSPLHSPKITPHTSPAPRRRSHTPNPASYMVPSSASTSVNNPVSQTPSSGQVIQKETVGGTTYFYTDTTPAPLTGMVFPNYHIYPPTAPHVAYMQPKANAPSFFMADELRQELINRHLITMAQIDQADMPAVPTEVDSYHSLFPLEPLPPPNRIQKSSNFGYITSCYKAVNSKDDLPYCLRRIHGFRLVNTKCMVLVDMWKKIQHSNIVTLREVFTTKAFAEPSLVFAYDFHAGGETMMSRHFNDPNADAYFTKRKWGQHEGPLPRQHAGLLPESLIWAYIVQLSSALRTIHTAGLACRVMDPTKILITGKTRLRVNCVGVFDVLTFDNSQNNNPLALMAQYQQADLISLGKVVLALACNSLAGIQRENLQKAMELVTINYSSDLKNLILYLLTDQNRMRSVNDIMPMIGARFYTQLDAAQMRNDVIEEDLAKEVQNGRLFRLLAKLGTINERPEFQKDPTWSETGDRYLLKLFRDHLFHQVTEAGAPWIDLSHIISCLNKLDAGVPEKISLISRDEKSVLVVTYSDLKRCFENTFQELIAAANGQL

[4] = target: T2, Inhibitor of nuclear factor kappa-B kinase subunit epsilon (Homo sapiens) (UniProt Q14164); assay: Inhibition of IKKe Lys1 labeling site in human A-375 cells at 0.05 uM by KiNativ Profiling analysis relative to control; assay type: cell-based
T2 sequence (whole entry): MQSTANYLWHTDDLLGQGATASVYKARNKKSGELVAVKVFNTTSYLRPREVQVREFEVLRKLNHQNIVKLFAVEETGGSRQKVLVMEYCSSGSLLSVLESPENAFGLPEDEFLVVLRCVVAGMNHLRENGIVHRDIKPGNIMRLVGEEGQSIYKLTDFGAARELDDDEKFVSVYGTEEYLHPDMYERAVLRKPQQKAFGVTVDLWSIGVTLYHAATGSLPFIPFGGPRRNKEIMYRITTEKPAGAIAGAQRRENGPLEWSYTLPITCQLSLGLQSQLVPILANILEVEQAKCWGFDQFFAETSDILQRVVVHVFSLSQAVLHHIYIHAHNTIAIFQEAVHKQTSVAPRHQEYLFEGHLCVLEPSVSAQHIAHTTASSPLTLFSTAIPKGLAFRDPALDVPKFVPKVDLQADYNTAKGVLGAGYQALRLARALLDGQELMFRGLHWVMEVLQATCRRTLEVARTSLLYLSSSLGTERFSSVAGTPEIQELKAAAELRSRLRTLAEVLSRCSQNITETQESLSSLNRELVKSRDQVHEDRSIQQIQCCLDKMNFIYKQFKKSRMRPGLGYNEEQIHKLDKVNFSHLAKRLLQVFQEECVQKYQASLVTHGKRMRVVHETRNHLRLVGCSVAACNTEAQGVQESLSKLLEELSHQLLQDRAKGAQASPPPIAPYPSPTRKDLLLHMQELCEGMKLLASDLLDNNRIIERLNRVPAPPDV

[5] = target: Myosin light chain kinase 2, skeletal/cardiac muscle (Homo sapiens) (UniProt Q9H1R3); assay: Inhibition of MYLK2 (unknown origin) at 10 uM by Ambit Kinomescan binding assay relative to control
Sequence of Myosin light chain kinase 2, skeletal/cardiac muscle (Homo sapiens) (Q9H1R3 whole entry): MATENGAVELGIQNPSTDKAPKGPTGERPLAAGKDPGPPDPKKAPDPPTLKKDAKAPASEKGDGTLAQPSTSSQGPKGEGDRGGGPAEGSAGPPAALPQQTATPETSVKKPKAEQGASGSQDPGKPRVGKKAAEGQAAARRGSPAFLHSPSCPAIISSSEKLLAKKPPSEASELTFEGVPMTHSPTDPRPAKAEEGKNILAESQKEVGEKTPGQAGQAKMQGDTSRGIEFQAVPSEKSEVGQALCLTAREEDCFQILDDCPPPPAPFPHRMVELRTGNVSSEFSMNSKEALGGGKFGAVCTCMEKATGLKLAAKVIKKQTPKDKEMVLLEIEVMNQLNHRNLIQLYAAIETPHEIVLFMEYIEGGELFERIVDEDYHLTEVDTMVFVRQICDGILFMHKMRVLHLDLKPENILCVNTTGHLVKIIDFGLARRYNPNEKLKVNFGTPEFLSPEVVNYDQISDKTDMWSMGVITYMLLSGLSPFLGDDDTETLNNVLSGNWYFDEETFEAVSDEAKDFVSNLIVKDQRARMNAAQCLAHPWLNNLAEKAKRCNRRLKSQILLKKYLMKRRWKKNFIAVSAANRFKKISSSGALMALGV

[6] = target: Protein-tyrosine kinase 6 (Homo sapiens) (UniProt Q13882); assay: Inhibition of BRK (unknown origin) at 10 uM by Ambit Kinomescan binding assay relative to control
Sequence of Protein-tyrosine kinase 6 (Homo sapiens) (Q13882 whole entry, looked up, the tested form may be a part): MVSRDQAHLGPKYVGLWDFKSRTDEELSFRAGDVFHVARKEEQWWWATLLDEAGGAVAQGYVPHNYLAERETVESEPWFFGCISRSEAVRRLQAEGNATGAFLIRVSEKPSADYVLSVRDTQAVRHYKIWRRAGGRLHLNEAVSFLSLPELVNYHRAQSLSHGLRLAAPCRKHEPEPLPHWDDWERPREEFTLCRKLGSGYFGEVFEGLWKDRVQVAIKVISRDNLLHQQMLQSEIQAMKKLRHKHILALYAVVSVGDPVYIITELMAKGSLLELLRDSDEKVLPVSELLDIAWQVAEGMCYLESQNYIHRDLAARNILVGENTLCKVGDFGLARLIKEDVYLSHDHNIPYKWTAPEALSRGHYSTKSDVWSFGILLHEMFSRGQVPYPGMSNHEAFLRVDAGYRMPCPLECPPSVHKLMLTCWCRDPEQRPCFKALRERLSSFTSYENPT

[7] = target: LIM domain kinase 2 (Homo sapiens) (UniProt P53671); assay: Inhibition of LIMK2 (unknown origin) at 1 uM by Ambit Kinomescan binding assay relative to control; values are per cent of control
[8] = target: 3-phosphoinositide-dependent protein kinase 1 (Homo sapiens) (UniProt O15530); assay: Inhibition of PDPK1 (unknown origin) at 1 uM by Ambit Kinomescan binding assay relative to control; values are per cent of control
Sequence of 3-phosphoinositide-dependent protein kinase 1 (Homo sapiens) (O15530 whole entry): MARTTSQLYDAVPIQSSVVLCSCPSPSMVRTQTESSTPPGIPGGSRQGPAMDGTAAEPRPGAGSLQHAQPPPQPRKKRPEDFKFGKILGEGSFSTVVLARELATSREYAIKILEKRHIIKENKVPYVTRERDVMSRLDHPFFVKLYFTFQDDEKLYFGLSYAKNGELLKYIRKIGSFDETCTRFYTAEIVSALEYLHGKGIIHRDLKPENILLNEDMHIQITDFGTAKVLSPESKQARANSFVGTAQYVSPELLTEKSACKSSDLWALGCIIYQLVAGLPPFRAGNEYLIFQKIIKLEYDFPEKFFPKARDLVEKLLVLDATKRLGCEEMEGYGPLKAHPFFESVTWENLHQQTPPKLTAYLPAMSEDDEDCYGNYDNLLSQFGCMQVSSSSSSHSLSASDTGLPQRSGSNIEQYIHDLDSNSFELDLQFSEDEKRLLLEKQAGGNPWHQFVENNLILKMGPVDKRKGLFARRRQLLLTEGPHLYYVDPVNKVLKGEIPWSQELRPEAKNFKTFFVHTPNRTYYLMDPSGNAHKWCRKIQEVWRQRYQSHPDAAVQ

[9] = system: Mast/stem cell growth factor receptor Kit (Homo sapiens), P10721 [A829P]; assay: Inhibition of KIT A829P mutant (unknown origin) at 1 uM by Ambit Kinomescan binding assay relative to control; values are per cent of control
[10] = target: Tyrosine-protein kinase Tec (Homo sapiens) (UniProt P42680); assay: Inhibition of TEC (unknown origin) at 1 uM by Ambit Kinomescan binding assay relative to control
[11] = target: eIF-2-alpha kinase GCN2 (Homo sapiens) (UniProt Q9P2K8); assay: Inhibition of GCN2 domain2 Lys2 labeling site in human A-375 cells at 0.5 uM by KiNativ Profiling analysis relative to control; assay type: cell-based
Sequence of eIF-2-alpha kinase GCN2 (Homo sapiens) (Q9P2K8 whole entry, the tested form may be a part): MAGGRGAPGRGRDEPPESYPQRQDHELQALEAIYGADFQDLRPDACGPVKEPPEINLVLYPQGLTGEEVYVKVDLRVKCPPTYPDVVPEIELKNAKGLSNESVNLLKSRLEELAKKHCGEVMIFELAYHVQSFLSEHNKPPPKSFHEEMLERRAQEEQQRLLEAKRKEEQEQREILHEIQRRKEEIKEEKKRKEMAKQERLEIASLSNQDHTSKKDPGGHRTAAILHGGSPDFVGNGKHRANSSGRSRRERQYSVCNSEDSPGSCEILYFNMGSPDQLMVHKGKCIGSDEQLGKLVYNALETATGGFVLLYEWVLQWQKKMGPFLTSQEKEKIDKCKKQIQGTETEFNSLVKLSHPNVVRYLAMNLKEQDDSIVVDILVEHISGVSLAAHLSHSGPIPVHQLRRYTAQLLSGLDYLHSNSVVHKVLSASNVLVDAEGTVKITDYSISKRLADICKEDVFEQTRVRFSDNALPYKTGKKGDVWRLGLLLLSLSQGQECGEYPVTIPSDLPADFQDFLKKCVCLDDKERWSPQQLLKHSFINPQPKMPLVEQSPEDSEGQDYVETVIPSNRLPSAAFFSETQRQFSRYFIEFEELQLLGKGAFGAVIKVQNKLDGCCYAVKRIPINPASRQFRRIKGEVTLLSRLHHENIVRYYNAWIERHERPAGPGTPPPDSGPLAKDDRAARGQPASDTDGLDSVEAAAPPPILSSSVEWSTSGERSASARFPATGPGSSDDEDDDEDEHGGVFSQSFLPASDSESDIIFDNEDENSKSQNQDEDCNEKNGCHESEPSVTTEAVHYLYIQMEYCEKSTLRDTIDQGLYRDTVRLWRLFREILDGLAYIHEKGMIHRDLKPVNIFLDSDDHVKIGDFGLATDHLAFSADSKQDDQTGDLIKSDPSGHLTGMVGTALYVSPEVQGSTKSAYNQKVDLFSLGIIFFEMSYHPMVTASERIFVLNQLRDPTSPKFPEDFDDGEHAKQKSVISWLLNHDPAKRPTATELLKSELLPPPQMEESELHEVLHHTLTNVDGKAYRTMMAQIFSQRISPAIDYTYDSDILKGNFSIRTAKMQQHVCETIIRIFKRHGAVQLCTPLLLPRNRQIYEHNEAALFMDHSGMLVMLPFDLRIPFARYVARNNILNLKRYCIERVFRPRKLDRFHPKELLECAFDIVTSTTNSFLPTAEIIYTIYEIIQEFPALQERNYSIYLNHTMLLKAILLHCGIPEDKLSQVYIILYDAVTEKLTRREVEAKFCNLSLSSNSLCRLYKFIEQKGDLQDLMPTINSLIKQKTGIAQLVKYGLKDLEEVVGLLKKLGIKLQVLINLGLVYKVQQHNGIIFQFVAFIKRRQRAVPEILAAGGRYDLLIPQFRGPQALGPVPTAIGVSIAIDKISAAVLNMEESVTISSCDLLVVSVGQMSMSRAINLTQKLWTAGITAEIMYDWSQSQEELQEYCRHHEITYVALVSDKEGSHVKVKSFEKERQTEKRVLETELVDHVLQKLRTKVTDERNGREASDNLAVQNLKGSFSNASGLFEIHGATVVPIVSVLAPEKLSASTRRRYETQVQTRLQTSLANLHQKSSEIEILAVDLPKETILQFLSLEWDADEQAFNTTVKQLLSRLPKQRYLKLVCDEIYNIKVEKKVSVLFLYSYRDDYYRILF

[12] = target: Serine/threonine-protein kinase DCLK1 (Homo sapiens) (UniProt O15075); assay: Inhibition of DCAMKL1 (unknown origin) at 1 uM by Ambit Kinomescan binding assay relative to control
Sequence of Serine/threonine-protein kinase DCLK1 (Homo sapiens) (O15075 whole entry): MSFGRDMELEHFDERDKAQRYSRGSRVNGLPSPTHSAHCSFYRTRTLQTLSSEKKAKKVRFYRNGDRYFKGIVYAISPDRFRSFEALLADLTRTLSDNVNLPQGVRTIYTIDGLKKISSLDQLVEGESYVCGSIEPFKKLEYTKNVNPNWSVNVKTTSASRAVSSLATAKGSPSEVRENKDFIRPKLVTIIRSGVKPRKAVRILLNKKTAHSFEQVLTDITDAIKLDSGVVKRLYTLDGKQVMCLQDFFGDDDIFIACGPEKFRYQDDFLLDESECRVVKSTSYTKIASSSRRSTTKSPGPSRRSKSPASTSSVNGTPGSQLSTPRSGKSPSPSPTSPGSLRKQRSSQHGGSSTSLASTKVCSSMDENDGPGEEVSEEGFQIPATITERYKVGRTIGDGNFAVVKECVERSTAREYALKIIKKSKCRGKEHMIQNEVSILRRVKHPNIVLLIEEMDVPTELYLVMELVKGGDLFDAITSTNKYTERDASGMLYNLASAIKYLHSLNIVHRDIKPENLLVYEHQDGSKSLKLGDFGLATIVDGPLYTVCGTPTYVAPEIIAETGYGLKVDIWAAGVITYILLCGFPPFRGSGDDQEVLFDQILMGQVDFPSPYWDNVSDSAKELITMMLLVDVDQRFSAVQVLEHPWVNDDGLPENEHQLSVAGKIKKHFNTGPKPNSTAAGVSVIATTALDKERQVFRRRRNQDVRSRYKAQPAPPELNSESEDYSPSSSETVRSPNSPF

[13] = target: Calcium/calmodulin-dependent protein kinase type II subunit gamma (Homo sapiens) (UniProt Q13555); assay: Inhibition of CaMK2g Lys1 labeling site harbouring KTSTQEYAAKIINTKK in human A-375 cells at 5 uM by KiNativ Profiling analysis relative to control; assay type: cell-based
Sequence of Calcium/calmodulin-dependent protein kinase type II subunit gamma (Homo sapiens) (Q13555 whole entry): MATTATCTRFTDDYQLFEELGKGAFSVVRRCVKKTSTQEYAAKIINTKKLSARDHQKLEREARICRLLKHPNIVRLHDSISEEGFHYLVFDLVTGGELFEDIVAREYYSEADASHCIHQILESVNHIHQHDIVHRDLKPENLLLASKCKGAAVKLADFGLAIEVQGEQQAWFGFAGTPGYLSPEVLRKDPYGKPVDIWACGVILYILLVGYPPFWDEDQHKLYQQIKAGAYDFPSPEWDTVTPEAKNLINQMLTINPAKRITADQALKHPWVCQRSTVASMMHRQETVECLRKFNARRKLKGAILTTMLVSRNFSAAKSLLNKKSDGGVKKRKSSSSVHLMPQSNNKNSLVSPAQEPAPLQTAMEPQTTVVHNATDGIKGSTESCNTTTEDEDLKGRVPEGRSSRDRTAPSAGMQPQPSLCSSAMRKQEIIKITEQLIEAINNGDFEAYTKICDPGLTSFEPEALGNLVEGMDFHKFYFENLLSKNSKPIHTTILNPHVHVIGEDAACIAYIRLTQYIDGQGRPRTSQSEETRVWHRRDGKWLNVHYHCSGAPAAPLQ

[14] = target: Serine/threonine-protein kinase MARK1 (Homo sapiens) (UniProt Q9P0L2); assay: Inhibition of MARK1 Lys2 labeling site in human A-375 cells at 0.5 uM by KiNativ Profiling analysis relative to control; assay type: cell-based

Compound CNc1cc(Oc2cc(C(=O)Nc3cc(N4CCN(C)CC4)cc(C(F)(F)F)c3)ccc2C)ncn1 has an inhibition [1] of 21.6%.
CCN1CCN(Cc2ccc(NC(=O)c3ccc(C)c(Oc4ccnc5[nH]ccc45)c3)cc2C(F)(F)F)CC1 was tested, and the inhibition [2] was 7.6%, the inhibition [3] was 7% and the inhibition [4] was -3.7%. The inhibition [5] was 8.4% and the inhibition [6] was 28%.
For CCN1CCN(Cc2ccc(NC(=O)c3ccc(C)c(/C=C/c4cnc5[nH]ccc5c4OC)c3)cc2C(F)(F)F)CC1, the residual activity [7] was 26%, the residual activity [8] was 100% and the residual activity [9] was 8%. It also gave an inhibition [10] of 16%, an inhibition [11] of 44.6% and an inhibition [12] of 100%. It also gave an inhibition [13] of 11.4% and an inhibition [14] of 2.2%.
